The source of these data is paper PMC3491360 (ACS medicinal chemistry letters, 2012).

The term Ki denotes a measure of affinity in units of concentration, obtained from inhibition or displacement.

“Also recorded” adds a separate entry of the source.

Experiment [1] has as its target T1, hA3AR (Homo sapiens, UniProt P0DMS8).
T1 sequence (P0DMS8 1-318): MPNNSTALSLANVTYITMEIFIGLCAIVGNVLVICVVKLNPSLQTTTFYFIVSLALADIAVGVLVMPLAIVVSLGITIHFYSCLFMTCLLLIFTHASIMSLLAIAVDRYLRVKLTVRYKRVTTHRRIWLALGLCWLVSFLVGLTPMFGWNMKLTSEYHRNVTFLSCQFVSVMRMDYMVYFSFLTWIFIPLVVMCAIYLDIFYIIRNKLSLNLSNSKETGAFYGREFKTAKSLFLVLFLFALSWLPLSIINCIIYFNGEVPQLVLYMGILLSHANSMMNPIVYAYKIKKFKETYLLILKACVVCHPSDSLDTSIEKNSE
The format is cell-based. As to conditions: in words, from cyclic AMP assay at 10 µM.

In experiment [2] the target is T1, hA3AR. As to conditions: read-out: Affinity (Ki) hA3; CHO cell membranes; ref Melman et al.[19]; cited from earlier work.
Experiment [3] deals with T1, hA3AR. As to conditions: at 10 µM, relative to 10 µM NECA (=100%); ref Melman et al.[19]; cited from earlier work.
The next experiment deals with hA2AAR (Homo sapiens, UniProt P29274). As to conditions: read-out: Affinity (Ki) hA2A; HEK293 cell membranes; ref Melman et al.[19]; cited from earlier work.
hA2AAR, sequence (P29274 whole entry): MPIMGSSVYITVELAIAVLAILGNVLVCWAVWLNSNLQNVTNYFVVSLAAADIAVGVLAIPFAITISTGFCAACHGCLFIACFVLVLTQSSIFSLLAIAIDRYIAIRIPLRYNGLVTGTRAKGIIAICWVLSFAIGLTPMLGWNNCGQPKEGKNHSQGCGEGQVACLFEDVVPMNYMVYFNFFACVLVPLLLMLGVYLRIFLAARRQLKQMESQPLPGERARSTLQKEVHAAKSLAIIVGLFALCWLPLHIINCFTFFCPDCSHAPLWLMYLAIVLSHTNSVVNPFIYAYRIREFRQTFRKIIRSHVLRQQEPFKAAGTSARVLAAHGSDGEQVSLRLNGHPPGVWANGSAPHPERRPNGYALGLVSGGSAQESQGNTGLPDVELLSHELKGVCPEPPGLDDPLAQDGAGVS
The next experiment deals with T2, hA1AR (Homo sapiens, UniProt P30542).
T2 sequence (P30542 1-326): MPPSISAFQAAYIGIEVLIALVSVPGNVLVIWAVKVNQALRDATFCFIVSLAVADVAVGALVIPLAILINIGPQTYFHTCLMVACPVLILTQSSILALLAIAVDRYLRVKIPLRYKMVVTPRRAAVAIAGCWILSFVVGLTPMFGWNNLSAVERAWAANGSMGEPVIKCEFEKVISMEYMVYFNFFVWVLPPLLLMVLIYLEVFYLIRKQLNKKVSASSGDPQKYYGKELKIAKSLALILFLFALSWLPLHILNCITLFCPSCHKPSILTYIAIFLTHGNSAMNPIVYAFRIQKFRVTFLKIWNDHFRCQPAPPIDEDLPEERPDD
The note with it: read-out: Affinity (Ki) hA1; CHO cell membranes; ref Melman et al.[19]; cited from earlier work.

Take `CNc1nc(C#Cc2ccccc2Cl)nc2c1ncn2[C@H]1[C@H](O)[C@H](O)[C@@H]2C[C@@H]21` [Compound 5]: the “functional character at the hA3AR” value on hA3AR [1] is reported as “antagonists”.
In the case of `O[C@@H]1[C@H](O)[C@@H]2C[C@@H]2[C@H]1n1cnc2c(NCc3cccc(I)c3)nc(Cl)nc21` [Compound 2a], the Ki at hA3AR [2] was 0.00144 µM. Also, on hA3AR [3], the “%Efficacy hA3” value was 1.0±3.2%.
For the compound `O[C@@H]1[C@H](O)[C@@H]2C[C@@H]2[C@H]1n1cnc2c(NCCc3ccccc3)nc(C#Cc3ccccc3)nc21` [Compound 15], the “functional character at the hA3AR” value on hA3AR [1] was “selective antagonist; also recorded: antagonists”.
Same read-out and setting: the entry for `O[C@@H]1[C@H](O)[C@@H]2C[C@@H]2[C@H]1n1cnc2c(NCCc3ccccc3)nc(C#Cc3ccccc3Cl)nc21` [Compound 16] is “low-efficacy partial agonists”.
Turning to `CNC(=O)[C@@]12C[C@@H]1[C@@H](n1cnc3c(NCc4cccc(Cl)c4)nc(Cl)nc31)[C@H](O)[C@@H]2O` [Compound 1], at hA2AAR, the Ki was 2.3 ± 0.1 µM.
For `CCNc1nc(C#Cc2ccccc2)nc2c1ncn2[C@H]1[C@H](O)[C@H](O)[C@@H]2C[C@@H]21` [Compound 8], the “functional character at the hA3AR” value on hA3AR [1] is listed as “antagonists”.
In the case of `OC1C(O)C(n2cnc3c(NCc4cccc(Cl)c4)nc(Cl)nc32)C2CC12` (stereo not shown) [Compound 2b], the inhibition constant (Ki) on hA1AR is 3.07 µM; at hA2AAR it was 4.51 µM. Also, the “%Efficacy hA3” value on hA3AR [3] is on record as 2.9±3.7%.
Regarding `CCNc1nc(C#Cc2ccccc2Cl)nc2c1ncn2[C@H]1[C@H](O)[C@H](O)[C@@H]2C[C@@H]21` [Compound 9], the “functional character at the hA3AR” value on hA3AR [1] is reported as “antagonists”.
Same read-out and setting: as for `CONc1nc(C#Cc2ccccc2)nc2c1ncn2[C@H]1[C@H](O)[C@H](O)[C@@H]2C[C@@H]21` [Compound 6], the entry is “low-efficacy partial agonists”; as for `O[C@@H]1[C@H](O)[C@@H]2C[C@@H]2[C@H]1n1cnc2c(NCc3cccc(Cl)c3)nc(C#Cc3ccccc3Cl)nc21` [Compound 12], “low-efficacy partial agonists”.
